Laboratory results from patent US20220289685A1, “ANTIMALARIAL HEXAHYDROPYRIMIDINE ANALOGUES” (UCB BIOPHARMA SRL, priority 2019, published 2022).
Counter-ions that a name gives are not always drawn.

These compounds were tested on Plasmodium falciparum 3D7 strain (assay: P. falciparum 3D7 asexual blood stage assay (SYBR green readout)). Details: Plasmodium falciparum, 3D7, Erythrocyte, 72 h.
Format: cell-based
Experimental: Asexual Blood Stage Assay
The assay used to measure the effect of test compounds on a bloodstream stage of Plasmodium falciparum: 3D7 strain employs SYBR green as the readout. This is a dye that binds to double stranded deoxyribonucleic acid (DNA) with a resulting increase in fluorescence, allowing detection of P. falciparum DNA in infected erythrocytes, and thereby providing a measure of parasite growth and propagation.
P. falciparum Culture Maintenance
Erythrocytes (A+ blood) were prepared for both parasite culture and assay by washing 4 times with incomplete media (15.9 g RPMI 1640 (25 mM HEPES, L-glutamine), 1 g NaHCO3, 2 g glucose, 400 μL gentacin (500 mg/mL), 2 mL hypoxanthine solution (13.6 g/L in 0.1M NaOH pH 7.3) in 1 litre of media). The cells were centrifuged at 1800 g for 5 minutes, before decanting the supernatant and re-suspending in fresh incomplete media. On the final wash, the cells were re-suspended in complete media (incomplete media with 5 g/L AlbumaxII), and centrifuged at 1800 g for 3 minutes. This cell sediment was treated as 100% haematocrit.
P. falciparum 3D7 was cultured in erythrocytes at 5% haematocrit in complete media at 37° C. (1% O2, 3% CO2, balance N2). Cultures were split on a weekly basis to achieve a 1% parasitaemia in erythrocites at 5% haematocrit in fresh media. Culture media is replaced by fresh media every other day (2 times during the week).
On day 1, test compounds were added to assay plates using Echo dispensing technology ([…] and 20 points titration). 50 nL of each compound dilution was added to 50 μL of culture (5% haematocrit, 0.5% parasitaemia) and incubated for 72 h at 37° C. (1% O2, 3% CO2, balance N2). Final concentrations of test compounds ranged from 50,000 nM to 15 nM, in […].
On day 4, 10 μL SYBR green (Invitrogen S7563 supplied as 10,000× concentrate in DMSO) pre-diluted to 3× concentrate with Lysis buffer (20 mM Tris pH 7.9, 5% EDTA, 0.16% w/v, 1.6% TX100 v/v) was added to the cultures and incubated in the dark, overnight, at room temperature.
On day 5, fluorescent signal was measured using a BioTek plate reader (excitation 485 nm, emission 528 nm). All data were processed using IDBS ActivityBase. Raw data were converted into percent inhibition through linear regression by setting the high inhibition control (mefloquine) as 100% and the no inhibition control (DMSO) as 0%. Quality control criteria for passing plates were as follows: Z′>0.5, S:B>3, 30% CV(no inhibition control)<15. The formula used to calculate Z′ is: […]
All EC50 curve fitting was undertaken using the following bi-phasic two site dose response using XLfit model 300 (IDBS):
where A=100 minus the top of the upper curve 1 and the bottom of lower curve; B=Hill slope; log(C)=IC50 concentration at lower site; log(D)=IC50 concentration at upper site; x=inhibitor concentration; and y=% inhibition.

First: C[C@@H]1C[C@H](N2C(=N)N[C@](C)(c3cccc(NC(=O)c4cc(C#N)cn4C)c3Cl)CC2=O)CCO1 (relative stereo) [Example 113, N-(2-Chloro-3-{(4S)-2-imino-4-methyl-1-[(2R*,4R*)-2-methyl-tetrahydropyran-4-yl]-6-oxo-hexahydropyrimidin-4-yl}phenyl)-4-cyano-1-methylpyrrole-2-carboxamide trifluoroacetic acid salt]
Second: C[C@@H]1C[C@H](N2C(=N)N[C@](C)(c3cccc(NC(=O)c4cncn4C)c3Cl)CC2=O)CCO1 (relative stereo) [Example 103, N-(2-Chloro-3-{(4S)-2-imino-4-methyl-1-[(2R*,4R*)-2-methyl-tetrahydropyran-4-yl]-6-oxo-hexahydropyrimidin-4-yl}phenyl)-3-methylimidazole-4-carboxamide hydrochloride]
The IC50 of the first is 3.4-fold lower: 5 nM for the first, 17 nM for the second.

Compared with `C[C@@]1(c2cccc(NC(=O)c3ccc(Cl)cn3)c2Cl)CC(=O)N(C2CCOCC2)C(=N)N1` [Example 2, 5-Chloro-N-{2-chloro-3-[(4S)-2-imino-4-methyl-6-oxo-1-(tetrahydropyran-4-yl)hexahydro-pyrimidin-4-yl]phenyl}pyridine-2-carboxamide trifluoroacetic acid salt], `C[C@@H]1C[C@H](N2C(=N)N[C@](C)(c3cccc(NC(=O)c4ccc(Cl)cn4)c3Cl)CC2=O)CCO1` (relative stereo) [Example 63, 5-Chloro-N-(2-chloro-3-{(4S)-2-imino-4-methyl-1-[(2R*,4R*)-2-methyltetrahydropyran-4-yl]-6-oxo-hexahydropyrimidin-4-yl]phenyl)-pyridine-2-carboxamide hydrochloride] is 27-fold lower in IC50: 1120 nM for the first, 41 nM for the second. The second is the more potent here.

First: C[C@@H]1C[C@H](N2C(=N)N[C@](C)(c3cccc(NC(=O)c4ccc(C#N)o4)c3Cl)CC2=O)CCO1 (relative stereo) [Example 115, N-(2-Chloro-3-{(4S)-2-imino-4-methyl-1-[(2R*,4R*)-2-methyl-tetrahydropyran-4-yl]-6-oxo-hexahydropyrimidin-4-yl]phenyl)-5-cyanofuran-2-carboxamide trifluoroacetic acid salt]
Second: C[C@@H]1C[C@H](N2C(=N)N[C@](C)(c3cccc(NC(=O)c4ccc(C#N)cc4)c3Cl)CC2=O)CCO1 (relative stereo) [Example 10, N-(2-Chloro-3-{(4S)-2-imino-4-methyl-1-[(2R*,4R*)-2-methyl-tetrahydropyran-4-yl]-6-oxo-hexahydropyrimidin-4-yl]phenyl)-4-cyanobenzamide hydrochloride]
The IC50 of the first is 16-fold lower: 18 nM for the first, 290 nM for the second.

First: Cc1cncc(C(=O)Nc2cccc([C@]3(C)CC(=O)N([C@@H]4CCO[C@H](C)C4)C(=N)N3)c2Cl)n1 (relative stereo) [Example 66, N-(2-Chloro-3-{(4S)-2-imino-4-methyl-1-[(2R*,4R*)-2-methyl-tetrahydropyran-4-yl]-6-oxo-hexahydropyrimidin-4-yl}phenyl)-6-methylpyrazine-2-carboxamide hydrochloride]
Second: Cc1cnc(C(=O)Nc2cccc([C@]3(C)CC(=O)N([C@@H]4CCO[C@H](C)C4)C(=N)N3)c2Cl)cn1 (relative stereo) [Example 34, N-(2-Chloro-3-{(4S)-2-imino-4-methyl-1-[(2R*,4R*)-2-methyl-tetrahydropyran-4-yl]-6-oxo-hexahydropyrimidin-4-yl]phenyl)-5-methylpyrazine-2-carboxamide trifluoroacetic acid salt]
The IC50 of the first is 1.5-fold higher: 92 nM for the first, 60 nM for the second.

`C[C@@H]1C[C@H](N2C(=N)N[C@](C)(c3cccc(NC(=O)c4ccc(F)cc4OC(F)(F)F)c3Cl)CC2=O)CCO1` (relative stereo) [Example 102, N-(2-Chloro-3-{(4S)-2-imino-4-methyl-1-[(2R*,4R*)-2-methyl-tetrahydropyran-4-yl]-6-oxo-hexahydropyrimidin-4-yl}phenyl)-4-fluoro-2-(trifluoromethoxy)-benzamide hydrochloride] and `C[C@@H]1C[C@H](N2C(=N)N[C@](C)(c3cccc(NC(=O)c4ccc(C(F)(F)F)cn4)c3Cl)CC2=O)CCO1` (relative stereo) [Example 18, N-(2-Chloro-3-{(4S)-2-imino-4-methyl-1-[(2R*,4R*)-2-methyl-tetrahydropyran-4-yl]-6-oxo-hexahydropyrimidin-4-yl}phenyl)-5-(trifluoromethyl)pyridine-2-carboxamide hydrochloride] are within 1.5-fold of each other in IC50: 35 nM for the first, 46 nM for the second.

Going from `C[C@@]1(c2cccc(NC(=O)c3cccc(C#N)c3)c2Cl)CC(=O)N(C2CCC(F)(F)CC2)C(=N)N1` [Example 23, N-{2-Chloro-3-[(4S)-1-(4,4-difluorocyclohexyl)-2-imino-4-methyl-6-oxohexahydropyrimidin-4-yl]phenyl}-3-cyanobenzamide hydrochloride] to `C[C@H]1C[C@@H](N2C(=N)N[C@](C)(c3cccc(NC(=O)c4cccc(C#N)c4)c3Cl)CC2=O)CCC1(F)F` (relative stereo) [Example 26, N-(2-Chloro-3-{(4S)-1-[(1S*,3S*)-4,4-difluoro-3-methylcyclohexyl]-2-imino-4-methyl-6-oxohexahydro-pyrimidin-4-yl]phenyl)-3-cyano-benzamide trifluoroacetic acid salt], the IC50 falls from 68 nM to 15 nM (4.5-fold).

First: C[C@@H]1C[C@H](N2C(=N)N[C@](C)(c3cccc(NC(=O)c4ccc(F)cn4)c3Cl)CC2=O)CCO1 (relative stereo) [Example 13, N-(2-Chloro-3-{(4S)-2-imino-4-methyl-1-[(2R*,4R*)-2-methyl-tetrahydropyran-4-yl]-6-oxo-hexahydropyrimidin-4-yl]phenyl)-5-fluoropyridine-2-carboxamide hydrochloride]
Second: C[C@@H]1C[C@H](N2C(=N)N[C@](C)(c3cccc(NC(=O)c4ncc(F)cc4F)c3Cl)CC2=O)CCO1 (relative stereo) [Example 100, N-(2-Chloro-3-{(4S)-2-imino-4-methyl-1-[(2R*,4R*)-2-methyl-tetrahydropyran-4-yl]-6-oxo-hexahydropyrimidin-4-yl}phenyl)-3,5-difluoropyridine-2-carboxamide hydrochloride]
The IC50 of the first is 3-fold lower: 11 nM for the first, 33 nM for the second.

Compared with `C[C@@H]1C[C@H](N2C(=N)N[C@](C)(c3cccc(NC(=O)c4cccc(Cl)c4)c3Cl)CC2=O)CCO1` (relative stereo) [Example 11, 3-Chloro-N-(2-chloro-3-{(4S)-2-imino-4-methyl-1-[(2R*,4R*)-2-methyltetrahydropyran-4-yl]-6-oxo-hexahydropyrimidin-4-yl]phenyl)-benzamide hydrochloride], `C[C@@H]1C[C@H](N2C(=N)N[C@](C)(c3cccc(NC(=O)c4cccnc4)c3Cl)CC2=O)CCO1` (relative stereo) [Example 7, N-(2-Chloro-3-{(4S)-2-imino-4-methyl-1-[(2R*,4R*)-2-methyl-tetrahydropyran-4-yl]-6-oxo-hexahydropyrimidin-4-yl}phenyl)-pyridine-3-carboxamide hydrochloride] is 3.2-fold higher in IC50: 9 nM for the first, 29 nM for the second. The first is the more potent here.

`COc1ccc(C#N)cc1C(=O)Nc1cccc([C@]2(C)CC(=O)N([C@@H]3CCO[C@H](C)C3)C(=N)N2)c1Cl` (relative stereo) [Example 106, N-(2-Chloro-3-{(4S)-2-imino-4-methyl-1-[(2R*,4R*)-2-methyl-tetrahydropyran-4-yl]-6-oxo-hexahydropyrimidin-4-yl}phenyl)-5-cyano-2-methoxybenzamide hydrochloride] and `C[C@@H]1C[C@H](N2C(=N)N[C@](C)(c3cccc(NC(=O)c4cc(C#N)ccc4Cl)c3Cl)CC2=O)CCO1` (relative stereo) [Example 98, 2-Chloro-N-(2-chloro-3-{(4S)-2-imino-4-methyl-1-[(2R*,4R*)-2-methyltetrahydropyran-4-yl]-6-oxo-hexahydropyrimidin-4-yl}phenyl)-5-cyanobenzamide hydrochloride] are within 1.5-fold of each other in IC50: 38 nM for the first, 45 nM for the second.

For `C[C@@H]1C[C@H](N2C(=N)N[C@](C)(c3cccc(NC(=O)c4cc(F)cc(F)c4)c3Cl)CC2=O)CCO1` (relative stereo) [Example 42, N-(2-Chloro-3-{(4S)-2-imino-4-methyl-1-[(2R*,4R*)-2-methyl-tetrahydropyran-4-yl]-6-oxo-hexahydropyrimidin-4-yl]phenyl)-3,5-difluorobenzamide trifluoroacetic acid salt], the IC50 was 42 nM.
